Assay results from patent US20160264616A1, “THERAPEUTIC COMPOUNDS AND METHODS” (priority 2015, published 2016).

System: RGS17ΔN:Gαo interaction in HEK293T cells
Assay: RGS localization assay, GFP-RGS17ΔN co-transfected with hGαo in HEK293T cells
Format: cell-based, human
Conditions: for delocalization of RGS17ΔN from the membrane: 100 μM compound
Method: HEK293T cells co-transfected with GFP-RGS17FL and human Gαo were treated with UI-5, UI-1590 and […] to determine if the compounds could disrupt the RGS17:Gαo interaction that could drive RGS17 to the membrane. […] To test this hypothesis, we constructed a GFP-RGS17 fusion protein with an N-terminal truncation, removing the cysteine-rich motif. […] As a negative control, we tested a known RGS4 inhibitor (CCG-50014) in this assay against RGS17ΔN (21). […] Finally, to ensure the localization was not due to the GFP tag, pAcGFP vector was co-transfected into HEK293T cells with hGαo. […] Cross-sectional fluorescence intensity analysis was used to quantify the intensity of signal at a cross section of the cell. Average signal at the membrane and in the cytoplasm were calculated and change in signal intensity was assessed between time zero and time final. […] Additionally, the control condition of CCG-50014 was subject to the same analyses as the lead compound.
Twenty four (24) hours prior to plating, assay plates were coated with 30 μl poly-D-lysine per well. Human Embryonic Kidney 293T cells (HEK293T) were plated in to 96 well tissue culture treated glass bottom view plates (Perkin Elmer, Part No. 6005430) at a density of 25K cells per well. 24 hours post seeding, cells were transfected with hGαo in pCDNA 3.1(+), pAcGFPRGS17 FL, pAcGFP RGS17ΔN, empty pAcGFP, hGαo+pAcGFPRGS17 FL, hGαo+pAcGFP RGS17ΔN, or hGαo+empty pAcGFP vector using Lipofectamine 2000 (Life Technologies) as the transfection reagent and according to manufacture protocols. 24 hours post transfection, cell media was removed and replaced with […] serum free, phenol red free DMEM (Life Technologies, Ref No. 31053-028). Cells were then imaged using a Zeiss LSM510 confocal microscope (University of Iowa Central Microscopy Core). Images were analyzed using NIH Image J software and Graphpad Prism 6.
Compounds at 2× final desired concentrations were diluted in serum free, phenol red free DMEM.

Q: Which “delocalization of RGS17ΔN from the membrane” value does the source give for `Cc1ccc(-n2sc(=O)n(Cc3ccc(F)cc3)c2=O)cc1` [CCG-50014, reference compound] here?
A: Its value is “No delocalization was observed”.

Q: And the “delocalization of RGS17ΔN from the membrane” value (listed as 50014)?
A: Its value is “did not result in RGS17ΔN delocalization”.

Q: What about the “change of membrane and cytosolic fluorescence signal (Image J cross-section)” value (time zero versus time final) of the same compound?
A: The value was “no significant change of signal”.
